Measurements from patent US5792784A, “Coupling product obtained from histamine and an amino acid” (Babizhayev; Marc, priority 1993, dated 1998).

What was measured:
[1] = "Peroxidase" type activity on liposome model: reduction of phosphatidylcholine hydroperoxides (PC-OOH); assay type: biochemical
Procedure: The "peroxidase" type activity also has been evaluated on a "liposome" model. The phosphatidylcholine hydroperoxides (PC-OOH) are prepared according to a similar procedure to the one already described for the linoleic acid monoperoxide.
The peroxide species reduction is followed by dosing the remaining peroxides according to the method laid down by Hicks M and Gebicki J. M.--Anal. Biochem, vol 99, (1979), p. 249-253.

murine splenocytes = assay: Immunostimulating activity in vitro on murine splenocytes (tritiated thymidine incorporation); assay type: cell-based
Excerpt: The procedure is extracted from: J. Kunert-Radek, H. Stepien, K. Lyson and M. Pawlikowski--"Effects of calcium channel modulators on the proliferation of mouse spleen lymphocytes in vitro"--Agents and Actions, vol. 29, Nos 3-4 (1990), p. 254-258.
The cell proliferation is followed by the measurement of the extent of incorporation of tritriated thymidine in the cells, expressed in numbers of desintegrations per mn, deducted from the background.
The results obtained with an immunostimulator of reference, concanavaline A, are given as a comparison.
The immunostimulating effect is expressed by an Index of Stimulation (IS) [formula]
The given values are corresponding to the average of three measures.

cataract = assay: Cataract patients: modification of the visual acuity at the end of 24 months; assay type: in vivo; details: 24 months
Excerpt: This example concerns the utilization of the β-alanyl-histamine to treat patients affected by cataract.
(§1) The study has been designed for a prospective evaluation of the modifications of the lens opacity in patients effected by cataract. All the patients have undergone an initial ophtalmic examination. It involved the making of the medical historical record of the patient, a measurement of the visual acuity at a maximum correction, direct or indirect ophtalmoscopies, an evaluation of the opacities with the slit lamp, a clinical grading of the lens after maximal mydriasis, a classification according to the cataract type, and lens pictures by retroillumination. Moreover, samples of blood have been taken at the beginning, then in follow-up for chemical analysis.
The general view has allowed to establish the initial state of patients before the treatment (definition of "base line").
Follow-up of ophtalmic examinations were carried out every two weeks for two months, then every month. They included maximum visual acuity after correction, direct or indirect ophtalmoscopies, a slit lamp examination, and after a maximum dilation of the pupil (excluding patients with primary open-angle glaucoma), a clinical lens grading, a classification of the cataract. Pictures also have been taken on lens observed by retroillumination or with the slit lamp.
In this study, differents groups have been determined, to be seen:
A group reference 1, with non-treated patients (5 patients, 7 eyes) […]
A group 3, has been submitted to the same treatment than the group 2, stimulated by an "attack type of treatment" during the first two weeks: 2 subcon-junctival junctival injections twice a week of 0.10 to 0.15 ml of the saline defined for the group 2 (3 patients, 4 eyes).
A group 4, which was given a local dose by way of an eye drop of isotonic saline twice a day (5 patients 7 eyes), the group 4 being like the group 1, a reference group.
(§2) Following the protocol described above, we determine the values of the optic density of the lens according to its opacity as well as the visual acuity, and the whole for 24 months. Considering these two parameters, we obtain tables giving results concerning the modification of the visual acuity at the end of 24 months in Tables 1 and 2, and the results concerning the modification of the visual opacity at the end of 24 months in Tables 3 and 4.

lens = assay: Cataract patients: lens opacity (slit lamp, retroillumination, image analysis); assay type: in vivo; details: for decrease of the opacity: 24 months, groups 2 and 3; for integration peak of opacity distribution: posterior subcapsular cataract
Excerpt: as §1
Changes of the lens have been examined in all the patients by using the microscope with the Zeiss slit lamp. The photographic observations obtained with this technique included a base line examination, intermediate studies and a final examination at the end of the treatment period.
In using the technique of the slit lamp, the lens has been pictured layer by layer in order to visualize all the anterior segment of the eye, from the cornea to the posterior capsule.
With this technique, Red reflex examination has been carried out, according to a conventional retroillumination. Then lens modifications were graded according to the anatomical location and the importance of the modification.
Cortical opacities have been graded and pictured in retroillumination. Afterwards this film has been submitted to a measurement of linear densitometry with a microdensitometer. The opacity values have been reported in relative value using a standard scale of opacification. The cortical opacities measurement have been rated also taking into account of the total surface exposed to radiation. The posterior subcapsular opacities have been measured in retroillumination by the longest height, from the lower part to the top and by the greatest width, using the scale of the slit lamp.
Pictures of the lens also were taken on nuclear and cortical opacities and later on they were graded.
The different negatives taken with the slit lamp have been analyzed with a "plumbicon tube". This equipment allows one to transpose with a large accuracy a measurement of intensity of light into an electric signal which is integrated and stored in an analysis system of computerized image. With the help of a specific program, the lens image in that manner "digitized" could be reproduced as a graph in two or three dimensions.
A detailed description of this method of image processing is given in : Babizhayev M. A. Zhukotskii A. V. and Sologub A. A. (1992), "Image analysis of the lens opacities induced in developing chick embryo by glucocorticoid", Exp. Eye Res. Vol. 55, p.521-537.
The represented histograms show in a concrete example the interest of such evaluation method. A case of posterior subcapsular cataract is studied before and after 21/2 months of treatment following topical applications with eye drops containing 1% of β-alanyl-histamine. The histograms give the quantitative distribution of opacities with an integration peak of 58.44±18.14 before treatment, and of 44.95±8.77 after 21/2 months of treatment.
as §2

[2] = Tests with peroxidized compounds: reducing behaviour; assay type: biochemical
[3] = groups 2 and 3, start acuity 20/30
[4] = groups 2 and 3, start acuity 20/40
[5] = groups 2 and 3, start acuity 20/50
[6] = groups 2 and 3, start acuity 20/70
[7] = groups 2 and 3, start acuity 20/100
[8] = groups 2 and 3, total of 19 eyes
[9] = after 21/2 months, eye drops 1%

Structure (SMILES): NCCC(=O)NCCc1c[nH]cn1 [β-alanyl-histamine]
- number of moles of PC-OOH reduced/initial number of moles of PC/hour ([1]; 10 mM): 0.77 × 10^-3 moles of PC-OOH reduced/initia
- number of moles of PC-OOH reduced/initial number of moles of PC/hour ([1]; 25 mM): 1.56 × 10^-3 moles of PC-OOH reduced/initia
- concentration of maximum immunostimulating effect (murine splenocytes): 25 µg/mL
- immunostimulating activity versus reference mitogen (murine splenocytes): comparable with a reference mitogen, concanavaline A
- fold induction at 2.5 µg/mL (murine splenocytes; Mus musculus, Splenocyte, 2.5 μg/ml, average of three measures, read-out: Index of Stimulation (IS)): 4.8
- fold induction at 5 µg/mL (murine splenocytes; Mus musculus, Splenocyte, 5 μg/ml, average of three measures, read-out: Index of Stimulation (IS)): 15.7
- fold induction at 10 µg/mL (murine splenocytes; Mus musculus, Splenocyte, 10 μg/ml, average of three measures, read-out: Index of Stimulation (IS)): 16.9
- fold induction at 25 µg/mL (murine splenocytes; Mus musculus, Splenocyte, 25 μg/ml, average of three measures, read-out: Index of Stimulation (IS)): 18.6
- fold induction at 50 µg/mL (murine splenocytes; Mus musculus, Splenocyte, 50 μg/ml, average of three measures, read-out: Index of Stimulation (IS)): 12.8
- improvement of the visual acuity + (number of eyes) (cataract; groups 2 and 3, start acuity 20/25): 1 eyes
- improvement of the visual acuity + (number of eyes) (cataract; [3]): 1 eyes
- improvement of the visual acuity ++ (number of eyes) (cataract; [3]): 4 eyes
- improvement of the visual acuity + (number of eyes) (cataract; [4]): 1 eyes
- improvement of the visual acuity ++ (number of eyes) (cataract; [4]): 3 eyes
- improvement of the visual acuity + (number of eyes) (cataract; [5]): 1 eyes
- improvement of the visual acuity ++ (number of eyes) (cataract; [5]): 1 eyes
- improvement of the visual acuity + (number of eyes) (cataract; [6]): 1 eyes
- improvement of the visual acuity ++ (number of eyes) (cataract; [6]): 1 eyes
- improvement of the visual acuity ++ (number of eyes) (cataract; [7]): 1 eyes
- improvement of the visual acuity +++ (number of eyes) (cataract; [7]): 2 eyes
- regression of the visual acuity ++ (number of eyes) (cataract; [7]): 1 eyes
- improvement of the visual acuity ++ (number of eyes) (cataract; groups 2 and 3, start acuity 20/200): 1 eyes
- improvement of the visual acuity + (number of eyes) (cataract; [8]): 5 eyes
- improvement of the visual acuity ++ (number of eyes) (cataract; [8]): 11 eyes
- improvement of the visual acuity +++ (number of eyes) (cataract; [8]): 2 eyes
- regression of the visual acuity + (number of eyes) (cataract; [8]): 0 eyes
- regression of the visual acuity ++ (number of eyes) (cataract; [8]): 1 eyes
- regression of the visual acuity +++ (number of eyes) (cataract; [8]): 0 eyes
- improvement of the vision and regression of cataract (cataract; two parameters: visual acuity and opacity): very significant in the improvement of the vision and the regression of cataract
- decrease of the opacity (lens; modification 5 @ 9%): 3
- decrease of the opacity (lens; modification 10 @ 14%): 5
- decrease of the opacity (lens; modification 15 @ 19%): 5
- decrease of the opacity (lens; modification 20 @ 24%): 1
- decrease of the opacity (lens; modification +25%): 5
- decrease of the opacity (lens; total): 19
- opacities in the posterior subcapsular region of the lens (lens; [9]): partial regression of the opacities
- integration peak of opacity distribution (lens; [9]): 44.95±8.77
- integration peak of opacity distribution (lens; before treatment): 58.44±18.14
- reducing behaviour towards peroxidized compounds [2]: behaves in a way comparable to β-alanyl-histidine or carnosine
